In publication PMC9944328 (Nature Communications, 2023):
Several values for one entry are separate records, joined by “and”; a condition that tells them apart may be missing. Equal entries are not always repeated.

Legend:
[1] = tested on: SSTR3 mutants; test: SSTRs Gi-mediated cAMP inhibition, GloSensor, HEK293 (SSTR3 mutants); assay type: cell-based, human; set-up: Bottom / Top / Span / Top (best-fit): unit not given here; conditions: H192(45.51)T and N101(2.64)V in SSTR3
Description: (§1) The levels of the intracellular 3′, 5′-cyclic AMP (cAMP) were measured by the GloSensor cAMP assay (Promega) as described in the previous studies[28],[41] which has been widely used. The human full-length SSTRs and mutants were cloned into the pcDNA3.1+ vector with a HA signal sequence followed by a Flag tag at the N-terminus. […] Cells were then co-transfected with SSTR wild-type or mutants and GloSensor plasmids. After 24 h of transfection, the cells were dissociated with TrypLE™ Express Enzyme (1X) (Thermo Fisher Scientific) and collected by centrifugation at 500 × g for 5 min. Then the collected cells were suspended in Hank’s balanced salt solution [HBSS (Thermo Fisher Scientific)] supplemented with […] potassium salt solution (YEASEN), and then the suspension cells were seeded into 96-well plates with 90 μl/well. After incubating at room temperature for 40 min, 5 μM forskolin and ligands diluted in HBSS were added to each well and the plates were incubated at room temperature for 15 min. […] signals were measured using the Synergy H1 microplate reader (BioTek) and the data presented are means of at least three independent experiments.

[2] = biological target: SSTR3 mutants (Homo sapiens, UniProt P32745, N104V); test: as above; assay type: cell-based; set-up: Bottom / Top / Span / Top (best-fit): unit not given here; conditions: for Top: best-fit
Chain of SSTR3 mutants (Homo sapiens, UniProt P32745, N104V) (P32745 whole entry N104V): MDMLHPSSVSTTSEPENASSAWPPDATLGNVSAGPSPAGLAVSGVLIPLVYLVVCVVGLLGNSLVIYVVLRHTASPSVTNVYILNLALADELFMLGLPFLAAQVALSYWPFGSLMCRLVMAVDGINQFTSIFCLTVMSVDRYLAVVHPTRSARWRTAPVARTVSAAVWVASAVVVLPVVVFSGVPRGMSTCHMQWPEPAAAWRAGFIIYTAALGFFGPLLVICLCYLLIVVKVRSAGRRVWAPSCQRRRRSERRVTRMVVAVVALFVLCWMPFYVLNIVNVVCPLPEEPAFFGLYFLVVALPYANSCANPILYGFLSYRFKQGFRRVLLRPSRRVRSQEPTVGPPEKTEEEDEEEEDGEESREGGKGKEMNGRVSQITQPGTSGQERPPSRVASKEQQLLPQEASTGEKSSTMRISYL
Description: as §1

[3] = biological target: T1, SSTR3 mutants (Homo sapiens, UniProt P32745, M193I); test: as above; assay type: cell-based; set-up: Bottom / Top / Span / Top (best-fit): unit not given here
T1 construct: The human full-length SSTRs and mutants were cloned into the pcDNA3.1+ vector; expressed in transfected cells; host or cells: HEK293 (ATCC, CRL-1573)
T1 sequence (P32745 whole entry M193I): as the sequence (P32745 whole entry N104V) above, with V104N, M193I counted along it
Description: as §1

[4] = biological target: SSTR2 mutants (Homo sapiens, UniProt P30874, I284A); test: SSTRs Gi-mediated cAMP inhibition, GloSensor, HEK293, 5 μM forskolin, 15 min room temperature (SSTR2 mutants); assay type: cell-based; set-up: The human full-length SSTRs and mutants were cloned into the pcDNA3.1+ vector; expressed in transfected cells; host or cells: HEK293 (ATCC, CRL-1573); Best-fit Bottom, cAMP inhibition / Best-fit Top, cAMP inhibition / Span, cAMP inhibition / Bottom (best-fit value) / Top (best-fit value) / Span (best-fit value) / Span (best-fit) / Bottom (best-fit) / Top (best-fit) / Best-fit Bottom / Best-fit Top / Best-fit Span / Top / Span: scale not given here; conditions: I284A, best-fit, runs 1-3
Chain of SSTR2 mutants (Homo sapiens, UniProt P30874, I284A) (P30874 whole entry I284A): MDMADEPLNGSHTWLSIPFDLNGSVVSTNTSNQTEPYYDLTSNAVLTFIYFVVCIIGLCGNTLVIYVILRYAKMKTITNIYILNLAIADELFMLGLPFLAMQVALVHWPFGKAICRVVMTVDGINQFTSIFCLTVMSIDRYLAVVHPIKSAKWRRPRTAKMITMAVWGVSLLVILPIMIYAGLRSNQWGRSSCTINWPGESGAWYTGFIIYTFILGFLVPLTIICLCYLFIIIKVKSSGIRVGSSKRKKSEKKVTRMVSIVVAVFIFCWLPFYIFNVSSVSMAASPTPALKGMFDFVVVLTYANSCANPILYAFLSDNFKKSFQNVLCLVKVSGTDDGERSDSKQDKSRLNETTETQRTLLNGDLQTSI
Description: The levels of the intracellular 3′, 5′-cyclic AMP (cAMP) were measured by the GloSensor cAMP assay (Promega) as described in the previous studies[28],[41] which has been widely used. The human full-length SSTRs and mutants were cloned into the pcDNA3.1+ vector with a HA signal sequence followed by a Flag tag at the N-terminus. HEK293 cells (ATCC, CRL-1573) were seeded into 6-well microplates at a density of 1.0 × 10^6 cells/well and cultured for 24 h at 37 °C with 5% CO2. Cells were then co-transfected with SSTR wild-type or mutants and GloSensor plasmids. After 24 h of transfection, the cells were dissociated with TrypLE™ Express Enzyme (1X) (Thermo Fisher Scientific) and collected by centrifugation at 500 × g for 5 min. Then the collected cells were suspended in Hank’s balanced salt solution [HBSS (Thermo Fisher Scientific)] supplemented with […] (YEASEN), and then the suspension cells were seeded into 96-well plates with 90 μl/well. After incubating at room temperature for 40 min, 5 μM forskolin and ligands diluted in HBSS were added to each well and the plates were incubated at room temperature for 15 min. […] were measured using the Synergy H1 microplate reader (BioTek) and the data presented are means of at least three independent experiments.

[5] = biological target: SSTR2 mutants (Homo sapiens, UniProt P30874, Y312A); test: cell-based
Chain of SSTR2 mutants (Homo sapiens, UniProt P30874, Y312A) (P30874 whole entry Y312A): as the sequence (P30874 whole entry I284A) above, with A284I, Y312A counted along it
Description: (§2) Wild-type or mutant SSTR2, β-arrestin 1-Nluc and FYVE-mVenus were co-transfected in HEK293 cells at a ratio of 1:0.5:4 on six-well plates. The next day, the transfected cells were plated on white 96-well and incubated overnight, and then cells were incubated with 90 µL HBSS containing 20 mM HEPES and coelenterazine h (5 µM) at room temperature for 40 min. After incubation, ligand was added and the signal was measured using the Synergy H1 microplate reader (BioTek) to determine a BRET ratio.

[6] = biological target: SSTR2 mutants (Homo sapiens, UniProt P30874, R140A); test: cell-based
Chain of SSTR2 mutants (Homo sapiens, UniProt P30874, R140A) (P30874 whole entry R140A): as the sequence (P30874 whole entry I284A) above, with R140A, A284I counted along it
Description: as §2

[7] = biological target: T2, SSTR2 mutants (Homo sapiens, UniProt P30874, N276A); test: cell-based
T2 sequence (P30874 whole entry N276A, the tested form may be a part): as the sequence (P30874 whole entry I284A) above, with N276A, A284I counted along it
Description: as §2

[8] = biological target: T2, SSTR2 mutants; test: Bystander BRET endosomal trafficking (β-arrestin 1-Nluc, FYVE-mVenus), HEK293 (SSTR2 mutants); conditions: best-fit value;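 further: Read-out is the BRET ratio between Nluc-fused β-arrestin 1 and the early endosome marker FYVE-mVenus, measured after ligand addition with coelenterazine h as substrate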;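 on Bottom: percent of maximal wild-type response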
Description: as §2

[9] = biological target: SSTR2 mutants (Homo sapiens, UniProt P30874, F294A); test: as above; conditions: for Bottom: best-fit value
Chain of SSTR2 mutants (Homo sapiens, UniProt P30874, F294A) (P30874 whole entry F294A): as the sequence (P30874 whole entry I284A) above, with A284I, F294A counted along it
Description: as §2

[10] = tested on: acromegalic patients; conditions: cited from earlier work
Text: Somatostatin receptors (SSTRs) are members of the G protein-coupled receptor (GPCR) superfamily and contain five subtypes (SSTR1–5). SSTRs, especially SSTR2, are expressed at high levels in NETs and have emerged as important biomarkers[4],[6]. SSTRs and their endogenous ligands, somatostatin (SST) peptides, exert important physiological regulation of neuroendocrine functions. […] However, the use of SST for disease treatment is li ... || SSTR2 transmits extracellular signals into cells through Gαi/o coupling and β-arrestin recruitment pathways. cAMP inhibition causes decreased hormone secretion and cell proliferation[13],[14], while the β-arrestin recruitment results in subsequent receptor internalization thus influence the cell membrane distribution level and desensitization of SSTR2, which may lead to drug resistance and poor clinical curative effect[15]–[18].

With `N#Cc1cccc(-c2ccc3ncc(-c4cc(F)cc(F)c4)c(N4CCC(N)CC4)c3c2)c1O` [paltusotine] the “Receptor activation of mutants” value [1] was “increased paltusotine-induced SSTR3 activation”, the EC50 [2] was 97.8 nM and the Top ([2]; SSTR3 N101V-1) was 184. It also gave a Top ([2]; SSTR3 N101V-2) of 142.6, a Top ([2]; SSTR3 N101V-3) of 142.6 and an Emax ([3]; HEK293, Suppl. Table 4, SSTR3 M193(45.52)I, n=3) of 38.8 ± 17.4%. The “Fold of WT” value ([3]; Suppl. Table 4, SSTR3 M193(45.52)I) was 2.89, the EC50 ([3]; Suppl. Table 4, SSTR3 M193(45.52)I, n=3) was 184 ± 6.02 nM and the Bottom ([3]; best-fit, SSTR3 M193I-1) was -5.898. It also gave an EC50 ([3]; best-fit, SSTR3 M193I-1) of 590 nM, a LogEC50 ([3]; best-fit, SSTR3 M193I-1) of -6.229 and a Span ([3]; best-fit, SSTR3 M193I-1) of 76.32. The Top ([3]; best-fit, SSTR3 M193I-1) was 70.42, the Bottom ([3]; best-fit, SSTR3 M193I-2) was 0.4332 and the LogEC50 ([3]; best-fit, SSTR3 M193I-2) was ~ -3.924. The Span ([3]; best-fit, SSTR3 M193I-2) was ~ 6676, the Top ([3]; best-fit, SSTR3 M193I-2) was ~ 6677 and the Bottom ([3]; best-fit, SSTR3 M193I-3) was 0.4332. The LogEC50 ([3]; best-fit, SSTR3 M193I-3) was ~ -3.924, the Span ([3]; best-fit, SSTR3 M193I-3) was ~ 6676 and the Top ([3]; best-fit, SSTR3 M193I-3) was ~ 6677. For the same compound, the Span [4] was 112.7 and 91.59 and 139.6, the Top [4] was 112.9 and 105.5 and 122.9 and the EC50 [5] was 8.13 ± 1.64 nM. It also gave an EC50 [6] of 7.8 ± 1.47 nM, an EC50 [7] of 145.2 ± 1.11 nM and a Bottom ([8]; N276A-1 (run 1)) of 0.05559. For the same compound, the Bottom ([8]; N276A-2 (run 2)) was -0.1543, the Bottom ([8]; N276A-3 (run 3)) was -2.441 and the EC50 [9] was 2094 ± 1.18 nM. It also gave an Emax ([9]; HEK293) of 95.1 ± 4.53%, a Bottom ([9]; F294A-1 (run 1)) of 0.7189 and a Bottom ([9]; F294A-2 (run 2)) of -2.342. The Bottom ([9]; F294A-3 (run 3)) was -0.7874.
For `C[C@@H](O)[C@@H]1NC(=O)[C@H](CCCCN)NC(=O)[C@@H](Cc2c[nH]c3ccccc23)NC(=O)[C@H](Cc2ccccc2)NC(=O)[C@@H](NC(=O)[C@H](N)Cc2ccccc2)CSSC[C@@H](C(=O)N[C@H](CO)[C@@H](C)O)NC1=O` [octreotide], the “Acromegalic patients who do not respond well” value [10] is listed as ~ 30% and the “SSTR2 expression level during administration” value [10] is listed as “down-regulated”.
